Assay results taken from patent US9464291B2, “Methods and compositions for the treatment of cancer” (University of South Alabama, priority 2012, dated 2016).

What was measured:
c-fos = c-fos mRNA (semi-quantitative PCR) and protein in A2780-CP70 cells; format: cell-based, human
c-jun = c-jun mRNA (semi-quantitative PCR) and protein (Western blot) in A2780-CP70 cells; format: cell-based, human
Method: Controls included α-tubulin and histone deacetylase 3. C-jun antibody recognizes non-phosphorylated c-jun protein.
c-jun and c-fos mRNA expression was examined in A2780-CP70 cells transfected with anti-GLI1 shRNA construct at 6 hr, 24 hr, 48 hr, and 72 hr post-transfection using semi-quantative PCR analysis (FIG. 41).
A2780-CP70 cells were transfected with an IC50 dose of anti-Gli1 shRNA (treated) construct or vector (control). Total intracellular c-jun mRNA and c-jun protein was measured at 6 hr, 24 hr, 48 hr, and 72 hr.
C-jun mRNA and protein levels were further examined in cisplatin-resistant A2780-CP70 cells treated with an IC50 dose of anti-Gli1 shRNA. FIG. 78 depicts mRNA levels (panel A) and protein levels (panel B) in cells at 6, 24, 48, and 72 hours post-treatment.

Shh, Ihh = experiment: Shh and Ihh protein levels in A2780-CP70 cells; format: cell-based, human; details: cyclopamine-treated
Method: SHH and IHH protein levels were assessed in cyclopamine-treated A2780-CP70 cells by Western blot analysis. Referring to FIG. 28, SHH protein (51 kDa) was detected in cytoplasmic fractions, but not nuclear fractions of treated cells at 0 hr. […] At 48 hr, SHH protein levels were prominent in cytoplasmic and nuclear fractions, and remained prominent through 72 hr. Referring to FIG. 29, IHH protein (45 kDa) was detected in cytoplasmic and nuclear fractions of treated cells at 0 hr. At 6 hr, IHH protein levels were more prominent in nuclear fractions than in cytoplasmic fractions. At 24 hr, IHH protein levels were low in both nuclear and cytoplasmic fractions. However, at 48 hr IHH protein levels increased in nuclear fractions through to 72 hr. IHH was only weakly present in the cytoplasmic fractions between 48-72 hr. […] After 24 hr SHH and IHH protein levels were similar in nuclear and cytoplasmic fractions. SHH and IHH protein levels rebounded by 48 hr and 72 hr.
The effects of an IC50 dose of anti-Gli1 shRNA on cisplatin-sensitive A2780 cells and cisplatin-resistant A2780-CP70 cells were assessed. Cisplatin-sensitive A2780 cells and cisplatin-resisitant A2780-CP70 cells were treated with 2.0 μg/ml shRNA per 200 microliter well anti-Gli1 shRNA. Protein levels of Gli1, Gli2, c-jun, Shh, Ihh, and GAPDH (control) were measured. […]

MC3T3-E1 cells = experiment: Osteoblast differentiation (ALP) and mineralization (Alizarin Red S), MC3T3-E1; format: cell-based, murine; details: 100 nM ligand in DM
Method: The procedure for differentiation of osteoblasts was standardized. MC3T3-E1 cells were cultured in the presence of ascorbic acid and β-glycerophosphate. Mineralization was examined by Alizarin RedS staining (Ueno, A., et al. (2001). Matrix Biol 20, 347-355; Lee, Y. K., et al. (2004). J Biomed Mater Res A 69, 188-195; Duarte, W. R., et al. (2003). S100A4: a novel negative regulator of mineralization and osteoblast differentiation. J Bone Miner Res 18, 493-501). Referring to FIG. 13 and FIG. 14, differentiation was evident by intense red staining in presence of differentiation medium and in differentiation medium containing SHH compared to the control, growth medium. This was also evident in the intensity of absorbance and in the numbers of mineralized nodules formed (counted under the microscope) (FIG. 15).
Induction of osteoblastic and osteoclastic differentiation—In order to test the effect of conditioned medium from the tumor cells on osteoblast differentiation, a double-strength differentiation medium (DM) was formulated for MC3T3 E1 Sc-14 cells. […] Osteoblast differentiation was assessed by alkaline phosphatase (ALP) activity assay in the perspective of total phosphatase. The functional assessment of osteoblast mineralization was quantified by staining with Alizarin Red S and scoring the number of mineralized nodules.

OPN promoter = OPN promoter luciferase reporter assay in melanoma cell lines; format: cell-based, human; details: MDA-MB-435, MCC012A, MCC012F
Method: Empty pGL3 vector was used as control. Hedgehog ligands were added to the well 6 h prior to harvesting the cells (approximately 33 hr of initiation of transfection) for assay. Readings were normalized to total protein content. Each parameter was studied in triplicate and the experiment repeated at least 3 times. The data are represented as percent luciferase activity, which was derived as a percent of the relative light units in treated groups compared with the untreated groups.

## CC1=C2C[C@H]3[C@@H](CC=C4C[C@@H](O)CC[C@@]43C)[C@@H]2CC[C@]12O[C@@H]1C[C@H](C)CN[C@H]1[C@H]2C [cyclopamine]
c-fos; 70 μM cyclopamine, vs 0 hr
  c-fos mRNA peak level: 27 fold
c-fos; A2780-CP70, cyclopamine-treated
  c-fos protein level: increased substantially at 6 hr
c-jun; 70 μM cyclopamine, 6 hr vs 0 hr
  c-jun mRNA increase: 3 fold
c-jun; 70 μM cyclopamine, 24 hr vs 0 hr
  c-jun mRNA increase (peak): 13 fold
c-jun; A2780-CP70, IC50 dose of agent
  time of peak c-jun level: about 48 hours
Shh, Ihh
  SHH and IHH protein levels: reduced at 24 hr

## SHH: recombinant Sonic hedgehog ligand (R & D Systems)
MC3T3-E1 cells
  osteoblast differentiation (ALP activity): stimulated differentiation
MC3T3-E1 cells; 14 days
  numbers of mineralized nodules: significant increase (p<0.05)
OPN promoter
  OPN promoter activity: up-regulated the promoter activity of OPN
